Assay results reported in PubChem BioAssay (NCI).
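How tested: cells in 96-well plates exposed to compound for 48 hours at five concentrations. The concentration for full growth arrest is given as TGI.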

Key:
Test in all cases: NCI-60 cell line screen, 48 h
[1] = test system: HL-60(TB) leukemia
[2] = test system: SK-MEL-2 melanoma
[3] = test system: MCF7 breast
[4] = test system: M14 melanoma
[5] = test system: BT-549 breast
[6] = test system: T-47D breast
[7] = test system: NCI-H226 lung
[8] = test system: A549 NSCLC
[9] = test system: HOP-62 NSCLC
[10] = test system: EKVX NSCLC
[11] = test system: HT29 colon
[12] = test system: SF-268 CNS
[13] = test system: SW-620 colon
[14] = test system: HCC-2998 colon
[15] = test system: SF-295 CNS
[16] = test system: SNB-19 CNS
[17] = test system: OVCAR-5 ovarian
[18] = test system: SF-539 CNS
[19] = test system: CAKI-1 renal
[20] = test system: HCT-116 colon
[21] = test system: 786-0 renal
[22] = test system: MDA-MB-435
[23] = test system: CCRF-CEM leukemia
[24] = test system: NCI-H522 lung
[25] = test system: SN12C renal
[26] = test system: DU-145 prostate
[27] = test system: A498 renal
[28] = test system: TK-10 renal
[29] = test system: SK-OV-3 ovarian
[30] = test system: RXF 393 renal
[31] = test system: MDA-MB-231 breast
[32] = test system: SNB-75 CNS
[33] = test system: IGROV1 ovarian
[34] = test system: RPMI-8226 leukemia
[35] = test system: UACC-62 melanoma
[36] = test system: UO-31 renal
[37] = test system: SK-MEL-5 melanoma
[38] = test system: NCI-H23 lung
[39] = test system: OVCAR-8 ovarian
[40] = test system: MDA-N
[41] = test system: MALME-3M melanoma
[42] = test system: ACHN renal
[43] = test system: SK-MEL-28 melanoma
[44] = test system: PC-3 prostate
[45] = test system: HS 578T breast
[46] = test system: NCI-H460 lung
[47] = test system: NCI/ADR-RES ovarian
[48] = test system: OVCAR-4 ovarian
[49] = test system: COLO 205 colon
[50] = test system: OVCAR-3 ovarian
[51] = test system: K-562 leukemia
[52] = test system: UACC-257 melanoma
[53] = test system: U251 CNS
[54] = test system: LOX IMVI melanoma
[55] = test system: HCT-15 colon
[56] = test system: MOLT-4 leukemia
[57] = test system: KM12 colon
[58] = test system: SR leukemia
[59] = test system: HOP-92 NSCLC

For `Oc1ccc2ccccc2c1Cc1c(O)ccc2ccccc12`, the TGI [1] was 38.7 µM, the TGI [2] was 41.7 µM and the TGI [3] was 53.9 µM. The TGI [4] was 34.9 µM, the TGI [5] was 33.6 µM and the TGI [6] was 56.4 µM. For the same compound, the TGI [7] was 45.5 µM, the TGI [8] was 39.9 µM and the TGI [9] was 41.4 µM. It also gave a TGI [10] of 32.6 µM, a TGI [11] of 46.5 µM and a TGI [12] of 31.1 µM. For the same compound, the TGI [13] was 39.9 µM, the TGI [14] was 40.6 µM and the TGI [15] was 37.1 µM. It also gave a TGI [16] of 36.7 µM, a TGI [17] of 33.2 µM and a TGI [18] of 42.2 µM. It also gave a TGI [19] of 33.9 µM, a TGI [20] of 34.4 µM and a TGI [21] of 41.7 µM. For the same compound, the TGI [22] was 31.5 µM, the TGI [23] was 45.8 µM and the TGI [24] was 26 µM. It also gave a TGI [25] of 34.6 µM, a TGI [26] of 38.1 µM and a TGI [27] of 39.4 µM. For the same compound, the TGI [28] was 48.9 µM, the TGI [29] was 35 µM and the TGI [30] was 36 µM. The TGI [31] was 40.9 µM, the TGI [32] was 42.2 µM and the TGI [33] was 13.4 µM. For the same compound, the TGI [34] was 40.4 µM, the TGI [35] was 29.4 µM and the TGI [36] was 32.2 µM. For the same compound, the TGI [37] was 32.1 µM, the TGI [38] was 37.8 µM and the TGI [39] was 36.9 µM. It also gave a TGI [40] of 28.3 µM, a TGI [41] of 28.9 µM and a TGI [42] of 33.8 µM. The TGI [43] was 40.7 µM, the TGI [44] was 35.1 µM and the TGI [45] was 34.4 µM. For the same compound, the TGI [46] was greater than 100 µM, the TGI [47] was 37.4 µM and the TGI [48] was 30.6 µM. For the same compound, the TGI [49] was 36.5 µM, the TGI [50] was 28.4 µM and the TGI [51] was 32.8 µM. For the same compound, the TGI [52] was 48.9 µM, the TGI [53] was 34.4 µM and the TGI [54] was 38.7 µM. It also gave a TGI [55] of 32.7 µM, a TGI [56] of 36.9 µM and a TGI [57] of 43.9 µM.

`COC(=O)CNC(=O)Nc1cc(N2C(=O)ON3C2C(C)(C)N(O)C3(C)C)ccc1C` (configuration not stated) was tested, and the TGI [2] was greater than 100 µM, the TGI [3] was greater than 100 µM and the TGI [4] was greater than 100 µM. The TGI [5] was greater than 100 µM, the TGI [6] was greater than 100 µM and the TGI [7] was greater than 100 µM. The TGI [8] was greater than 100 µM, the TGI [9] was greater than 100 µM and the TGI [10] was greater than 100 µM. For the same compound, the TGI [11] was greater than 100 µM, the TGI [12] was greater than 100 µM and the TGI [13] was greater than 100 µM. The TGI [14] was greater than 100 µM, the TGI [15] was greater than 100 µM and the TGI [16] was greater than 100 µM. The TGI [17] was greater than 100 µM, the TGI [18] was greater than 100 µM and the TGI [19] was greater than 100 µM. The TGI [20] was greater than 100 µM, the TGI [21] was greater than 100 µM and the TGI [22] was greater than 100 µM. The TGI [23] was greater than 100 µM, the TGI [24] was greater than 100 µM and the TGI [25] was greater than 100 µM. It also gave a TGI [58] greater than 100 µM, a TGI [28] greater than 100 µM and a TGI [29] greater than 100 µM. It also gave a TGI [30] greater than 100 µM, a TGI [31] greater than 100 µM and a TGI [32] greater than 100 µM. The TGI [33] was greater than 100 µM, the TGI [35] was greater than 100 µM and the TGI [36] was greater than 100 µM. The TGI [37] was greater than 100 µM, the TGI [38] was greater than 100 µM and the TGI [39] was greater than 100 µM. For the same compound, the TGI [40] was greater than 100 µM, the TGI [41] was greater than 100 µM and the TGI [42] was greater than 100 µM. The TGI [43] was greater than 100 µM, the TGI [44] was greater than 100 µM and the TGI [45] was greater than 100 µM. The TGI [46] was greater than 100 µM, the TGI [47] was greater than 100 µM and the TGI [48] was greater than 100 µM. For the same compound, the TGI [49] was greater than 100 µM, the TGI [50] was greater than 100 µM and the TGI [51] was greater than 100 µM. It also gave a TGI [52] greater than 100 µM, a TGI [53] greater than 100 µM and a TGI [54] greater than 100 µM. The TGI [55] was greater than 100 µM, the TGI [56] was greater than 100 µM and the TGI [57] was greater than 100 µM.

`CN(NC(=O)c1cccs1)C1=NCCN1` gave a TGI [1] greater than 100 µM, a TGI [2] greater than 100 µM and a TGI [3] greater than 100 µM. It also gave a TGI [4] greater than 100 µM, a TGI [5] greater than 100 µM and a TGI [6] greater than 100 µM. The TGI [7] was greater than 100 µM, the TGI [8] was greater than 100 µM and the TGI [9] was greater than 100 µM. It also gave a TGI [10] greater than 100 µM, a TGI [11] greater than 100 µM and a TGI [12] greater than 100 µM. It also gave a TGI [13] greater than 100 µM, a TGI [14] greater than 100 µM and a TGI [15] greater than 100 µM. The TGI [16] was greater than 100 µM, the TGI [17] was greater than 100 µM and the TGI [18] was greater than 100 µM. For the same compound, the TGI [20] was greater than 100 µM, the TGI [21] was greater than 100 µM and the TGI [22] was greater than 100 µM. The TGI [23] was greater than 100 µM, the TGI [24] was greater than 100 µM and the TGI [58] was greater than 100 µM. The TGI [27] was greater than 100 µM, the TGI [28] was greater than 100 µM and the TGI [29] was greater than 100 µM. For the same compound, the TGI [30] was greater than 100 µM, the TGI [31] was greater than 100 µM and the TGI [32] was greater than 100 µM. It also gave a TGI [33] greater than 100 µM, a TGI [59] greater than 100 µM and a TGI [34] greater than 100 µM. The TGI [35] was greater than 100 µM, the TGI [36] was greater than 100 µM and the TGI [37] was greater than 100 µM. For the same compound, the TGI [38] was greater than 100 µM, the TGI [39] was greater than 100 µM and the TGI [40] was greater than 100 µM. The TGI [41] was greater than 100 µM, the TGI [42] was greater than 100 µM and the TGI [43] was greater than 100 µM. For the same compound, the TGI [44] was greater than 100 µM, the TGI [45] was greater than 100 µM and the TGI [46] was greater than 100 µM. For the same compound, the TGI [47] was greater than 100 µM, the TGI [48] was greater than 100 µM and the TGI [49] was greater than 100 µM. It also gave a TGI [50] greater than 100 µM, a TGI [51] greater than 100 µM and a TGI [52] greater than 100 µM. It also gave a TGI [53] greater than 100 µM, a TGI [54] greater than 100 µM and a TGI [55] greater than 100 µM. The TGI [56] was greater than 100 µM and the TGI [57] was greater than 100 µM.
